The values that follow are results of earlier work, collected in US20220409549A1, “ORAL PRODUCT TABLET AND METHOD OF MANUFACTURE” (NICOVENTURES TRADING LIMITED, priority 2021, published 2022).

The term logP denotes a log measure of how a compound divides between an organic and an aqueous phase.

The conditions of data set [1]: for logP: organic acids of Table 1, octanol and water.
For data set [2] the following is noted: for solubility: fats, alcohols, water.
For data set [3] the following is noted: converts via isomerization into trans-bixin.

Read-outs that look alike come from different tables or passages of the source.

With tocopherol succinate, in data set [1], the logP was 10.2.

Turning to isopropyl benzoic acid, the logP in data set [1] is recorded as 3.5.

As to ethyl benzoic acid, the logP in data set [1] is recorded as 2.9.

Regarding `CC(C)[C@@H]1CC[C@@H](C)C[C@H]1OC(=O)CCC(=O)O` [monomenthyl succinate], the logP in data set [1] is 3.

Turning to `CC(/C=C/C=C(C)/C=C/C(=O)O)=C\C=C\C=C(C)\C=C\C=C(C)\C=C\C(=O)O` (stereo in doubt) [norbixin, (2E,4E,6E,8E,10E,12E,14E,16E,18E)-4,8,13,17-tetramethylicosa-2,4,6,8,10,12,14,16,18-nonaenedioic acid], in data set [2], the solubility result is listed as “water soluble”.

As for `CN1CCCC1c1cccnc1` (centres unmarked) [nicotine, reference compound], the partitioning into octanol entry is recorded as “lower partitioning into octanol” in data set [1] (acidic pH values, about 6.5 to about 4, protonated form) and “high partitioning into octanol” in data set [1] (alkaline pH values, about 7.5 to about 9, free base form).

`C=C(C)[C@@H]1CCC(C)=C[C@H]1c1c(O)cc(CCCCC)cc1O` [CBD, cannabidiol, reference compound]: in data set [1] (CBD), the logP value entry is “about 6.5”. Also, the “solubility in an aqueous environment (e.g., saliva)” value in data set [2] is on record as “insoluble”.

For `COC(=O)/C=C/C(C)=C\C=C\C(C)=C\C=C\C=C(C)\C=C\C=C(C)\C=C\C(=O)O` [bixin], the “chemical stability when isolated” value in data set [3] is “chemically unstable”. In data set [2], the solubility entry was “soluble in fats and alcohols but insoluble in water”.
